Source: patent publication US20050069907A1, “Methods for using double-mutant RNA polymerases with reduced discrimination between non-canonical and canonical nucleoside triphosphates” (priority 2002, published 2005)
Marks after values point to notes of the source that are not given here.

Assays:
supercoiled pT75 = assay: rNTP/dNTP selectivity assay: labeled rNTP vs dNTP incorporation with 4 unlabeled rNTPs; type: biochemical
Protocol: (§1) Transcription reactions: Transcription reactions were carried out in 40 mM Tris-Cl pH 8.0, 15 mM MgCl2, and 5 mM DTT or 20 mM Manganese Citrate pH 8.0, 5 mM DTT at 37° C. Template, polymerase, and NTP concentrations were as indicated in the legends to the figures and tables. Relative activity determinations were made by taking 4 μl aliquots of reactions at 5, 10, and 20 minute time points and spotting on to DE81 filter paper. Unincorporated nucleotides were separated from incorporated nucleotides by washing the filter paper with 0.5 M KH2PO4 pH 7.0 and retained radioactive nucleotide was quantitated with a Molecular Dynamics phosphorimager. To evaluate rNTP/dNTP selectivity, reactions were run with 4 rNTPs and pT75 as template and α-P^32 rNTPs or α-P^32 dNTPs were used to label the transcripts. The relative rate of incorporation of an rNTP vs. its cognate dNTP was determined from the relative percentages of labeled rNTP vs. dNTP incorporated into DE81 retainable RNA at 5, 10, and 20 minute time points. Apparent miscoding frequencies were determined similarly, though in this instance the template was a single-stranded homopolymer and the reaction contained the complementary unlabeled rNTP, and complementary α-P^32 rNTP or one of the 3 non-complementary α-P^32 rNTPs. The relative percentages of labeled complementary vs. non-complementary rNTPs incorporated at 5, 10 and 20 minute time points gave an apparent miscoding rate. The rNTP/dNTP selectivity assay was used to test the following T7 RNAP mutants for effects on substrate discrimination: D537S, D537E, S539A, R5S1S, D552S, R627S, K631S, L637A, Y639S, Y639F, Y639A, G640A, F644A, G645A, Q649S, […], H811S, H811A, D812A, D812E, D812S, D812N, D879E+ΔF882+ΔA883, D879E+A881T+ΔA883, D879E+F884+A885, D879E+F882Y, D879E+ΔA883, D879E+F882W, D879E.
Relative selectivity of the mutant and W.T. polymerases for dNTPs and rNTPs: FIGS. 1-3 present a qualitative analysis of the structure of the transcripts produced by the W.T. and Y639F polymerases with various combinations of NTPs. […] To obtain a quantitative measure of the relative selectivity of the W.T. and mutant polymerases for dNTPs vs. rNTPs under conditions where transcript structure was not a complicating factor, reactions were carried out in which all 4 rNTPs were present but rNTPs or dNTPs were used to radiolabel the transcripts (see Table I).
Under these conditions the unlabeled rNTPs were present in vast excess relative to the labeling NTPs so labeling dNTPs are almost always incorporated adjacent to rNTPs and into transcripts of nearly uniform rNMP structure. […] This assay was used to screen our collection of T7 RNAP active site mutants for increased dNTP utilization. In this screen dATP incorporation in transcription reactions was examined with all of these mutants using supercoiled pT75 as the template, 4 cold rNTPs, and P32-rATP or P32-dATP to label. […] It has been reported that use of Mn^2+ instead of Mg^2+ decreases substrate discrimination and increases miscoding for a number of polymerases (Tabor and Richardson, 1989; Nivogi and Feldman, 1981). Therefore, the rNTP/dNTP selectivity of the mutant and W.T. enzymes were examined in Mn^2+-citrate buffer (Tabor and Richardson, 1989).

poly(dI)·poly(dC) = assay: Relative activity on poly(dI)·poly(dC); type: biochemical
Protocol: as §1
DNA and RNA synthesis on homopolymeric templates: T7 RNAP will synthesize poly(rG) RNAs on poly(dC) templates (Bonner, et al., 1994; Ikeda and Richardson 1987). The activity of the W.T. and mutant polymerases were measured on poly(dI)-poly(dC) with rGTP, dGTP, dGTP+rGMP (see, Table III).
Numbers give mean and range from 3 experiments. Templates were at 0.2 mg/ml, polymerases at 10^-8 M. Labeling NTPs were α-P^32 rGTP, α-P^32 dGTP, α-P^32 rATP, α-P^32 dATP, as appropriate. rNTPs or rNMPs at 0.5 mM; dNTPs at 1 mM.

[1] = Mg^2+ buffer, range of 2 experiments
[2] = rGTP, mean and range from 3 experiments

Substance	Relative selectivity rCTP/dCTP (supercoiled pT75; Mg^2+ buffer)	Relative selectivity rGTP/dGTP (supercoiled pT75; Mg^2+ buffer)	Relative selectivity rUTP/dTTP (supercoiled pT75; Mg^2+ buffer)	Relative selectivity rATP/dATP (supercoiled pT75; [1])	Relative selectivity rATP/dATP (supercoiled pT75; Mn^2+ buffer)	Relative selectivity rCTP/dCTP (supercoiled pT75; Mn^2+ buffer)	Relative selectivity rGTP/dGTP (supercoiled pT75; Mn^2+ buffer)	Relative selectivity rUTP/dTTP (supercoiled pT75; Mn^2+ buffer)	Relative activity on poly(dI)·poly(dC) (poly(dI)·poly(dC); dGTP)	Relative activity on poly(dI)·poly(dC) (poly(dI)·poly(dC); dGTP + rGMP)	Relative activity on poly(dI)·poly(dC) (poly(dI)·poly(dC); [2])	Reduction in selectivity for rNTPs over dNTPs relative to W.T., on average (supercoiled pT75)
W.T.: wild-type T7 RNA polymerase [reference compound]	110-150	51-67	22-25	72-83 (Mg)*	6-14 (Mn)*	4.3-5.1	4.4-6.3	2.3-2.8	7.4 (5.4-12.5)	25 (20-27)	1000	–
Y639F: T7 RNAP with wild-type tyrosine at position 639 substituted by phenylalanine	2.4-2.5	.93-1.6	1.7-1.9	8.5-10 (Mg)*	.9-1.0 (Mn)*	.55-.80	.98-.99	.48-.76	964 (684-1257)	1070 (816-1457)	1000	~20 fold
